Values of other authors in patent US8673343B2, “Preparation and administration of jojoba product for reducing weight, fat and blood lipid levels and for the prevention and treatment of cancer” (Yiwu Jiangr Bio-Technology HK Corp., priority 2001, dated 2014).

Key:
[1] = growing rats, long-term administration of lower doses
[2] = animal and human studies

Compound: CO[C@H]1[C@@H](OC)C[C@@H](O[C@@H]2O[C@H](CO)[C@@H](O)[C@H](O)[C@H]2O)/C(=C\C#N)[C@@H]1O [simmondsin, 2-(cyanomethylene)-3-hydroxy-4,5-dimethoxycyclohexyl beta-D-glucoside]
- side effects [1]: without showing any side effects
- sustained food intake inhibition [1]: about 20%
- other side effects commonly associated with cancer chemotherapy [2]: no other side effects
